# According to ChEMBL document CHEMBL3400015, “Tertiary amides of Salinomycin: A new group of antibacterial agents against Bacillus anthracis and methicillin-resistant Staphylococcus epidermidis” (Bioorg Med Chem Lett, 2015):
# What was measured:
# Staphylococcus aureus [1] = test: Antimicrobial activity against Staphylococcus aureus […] after 18 hrs by twofold serial broth dilution method; type: functional
# [2] = test system: Staphylococcus epidermidis; test: Bactericidal activity against methicillin-resistant Staphylococcus epidermidis isolate 469/11 after 24 hrs; type: functional; settings: isolate 469/11, 24 h, read-out: MBC99.9
# [3] = test system: Staphylococcus epidermidis; test: Bactericidal activity against methicillin-resistant Staphylococcus epidermidis isolate 405/10 after 24 hrs; type: functional; settings: isolate 405/10, 24 h, read-out: MBC99.9
# [4] = test system: Staphylococcus epidermidis; test: Bactericidal activity against Staphylococcus epidermidis ATCC 35984 after 24 hrs; type: functional; settings: ATCC 35984, 24 h, read-out: MBC99.9
# Bacillus anthracis = test: Antimicrobial activity against Bacillus anthracis 34F2 after 18 hrs by twofold serial broth dilution method; type: functional; settings: 34F2, 18 h
# [5] = test system: Staphylococcus epidermidis; test: Antimicrobial activity against methicillin-resistant Staphylococcus epidermidis isolate 458/11 after 18 hrs by twofold serial broth dilution method; type: functional; settings: isolate 458/11, 18 h
# [6] = test system: Staphylococcus epidermidis; test: Antimicrobial activity against Staphylococcus epidermidis ATCC 12228 after 18 hrs by twofold serial broth dilution method; type: functional; settings: ATCC 12228, 18 h
# Escherichia coli [7] = test: Bactericidal activity against Escherichia coli NCTC 8196 after 24 hrs; type: functional; settings: NCTC 8196, 24 h, read-out: MBC99.9
# Pseudomonas aeruginosa [8] = test: Antimicrobial activity against Pseudomonas aeruginosa ATCC 15442 after 18 hrs by twofold serial broth dilution method; type: functional; settings: ATCC 15442, 18 h
# Staphylococcus aureus [9] = test: Antimicrobial activity against Staphylococcus aureus ATCC 6538 after 18 hrs by twofold serial broth dilution method; type: functional; settings: ATCC 6538, 18 h
# [10] = test system: Staphylococcus epidermidis; test: Antimicrobial activity against methicillin-resistant Staphylococcus epidermidis isolate 403/10 after 18 hrs by twofold serial broth dilution method; type: functional; settings: isolate 403/10, 18 h
# [11] = test system: Staphylococcus epidermidis; test: Antimicrobial activity against methicillin-resistant Staphylococcus epidermidis isolate 459/11 after 18 hrs by twofold serial broth dilution method; type: functional; settings: isolate 459/11, 18 h
# [12] = test system: Staphylococcus epidermidis; test: Bactericidal activity against Staphylococcus epidermidis ATCC 12228 after 24 hrs; type: functional; settings: ATCC 12228, 24 h, read-out: MBC99.9
# Pseudomonas aeruginosa [13] = test: Bactericidal activity against Pseudomonas aeruginosa NCTC 6749 after 24 hrs; type: functional; settings: NCTC 6749, 24 h, read-out: MBC99.9
# [14] = test system: Staphylococcus epidermidis; test: Antimicrobial activity against methicillin-resistant Staphylococcus epidermidis isolate 455/11 after 18 hrs by twofold serial broth dilution method; type: functional; settings: isolate 455/11, 18 h
# [15] = test system: Staphylococcus epidermidis; test: Bactericidal activity against methicillin-resistant Staphylococcus epidermidis isolate 457/11 after 24 hrs; type: functional; settings: isolate 457/11, 24 h, read-out: MBC99.9
# [16] = test system: Staphylococcus epidermidis; test: Bactericidal activity against methicillin-resistant Staphylococcus epidermidis isolate 422/10 after 24 hrs; type: functional; settings: isolate 422/10, 24 h, read-out: MBC99.9
# Staphylococcus aureus [17] = test: Antimicrobial activity against Staphylococcus aureus ATCC 25923 after 18 hrs by twofold serial broth dilution method; type: functional; settings: ATCC 25923, 18 h
# [18] = test system: Staphylococcus epidermidis; test: Bactericidal activity against methicillin-resistant Staphylococcus epidermidis isolate 454/11 after 24 hrs; type: functional; settings: isolate 454/11, 24 h, read-out: MBC99.9
# [19] = test system: Staphylococcus epidermidis; test: Bactericidal activity against methicillin-resistant Staphylococcus epidermidis isolate 458/11 after 24 hrs; type: functional; settings: isolate 458/11, 24 h, read-out: MBC99.9
# [20] = test system: Staphylococcus epidermidis; test: Antimicrobial activity against methicillin-resistant Staphylococcus epidermidis isolate 469/11 after 18 hrs by twofold serial broth dilution method; type: functional; settings: isolate 469/11, 18 h
# Escherichia coli [21] = test: Bactericidal activity against Escherichia coli ATCC 10538 after 24 hrs; type: functional; settings: ATCC 10538, 24 h, read-out: MBC99.9
# [22] = test system: Staphylococcus epidermidis; test: Bactericidal activity against methicillin-resistant Staphylococcus epidermidis isolate 403/10 after 24 hrs; type: functional; settings: isolate 403/10, 24 h, read-out: MBC99.9
# Bacillus subtilis = test: Genotoxicity in rec-positive Bacillus subtilis H17 at 2 ug/9 mm disc after 24 hrs by disc diffusion method; type: toxicity, organism-based
# [23] = test system: Staphylococcus epidermidis; test: Antimicrobial activity against methicillin-resistant Staphylococcus epidermidis isolate 470/11 after 18 hrs by twofold serial broth dilution method; type: functional; settings: isolate 470/11, 18 h
# Pseudomonas aeruginosa [24] = test: Bactericidal activity against Pseudomonas aeruginosa ATCC 27853 after 24 hrs; type: functional; settings: ATCC 27853, 24 h, read-out: MBC99.9
# Staphylococcus aureus [25] = test: Bactericidal activity against Staphylococcus aureus ATCC 6538 after 24 hrs; type: functional; settings: ATCC 6538, 24 h, read-out: MBC99.9
# [26] = test system: Staphylococcus epidermidis; test: Antimicrobial activity against methicillin-resistant Staphylococcus epidermidis isolate 424/10 after 18 hrs by twofold serial broth dilution method; type: functional; settings: isolate 424/10, 18 h
# [27] = test system: Staphylococcus epidermidis; test: Antimicrobial activity against methicillin-resistant Staphylococcus epidermidis isolate 461/11 after 18 hrs by twofold serial broth dilution method; type: functional; settings: isolate 461/11, 18 h
# [28] = test system: Staphylococcus epidermidis; test: Bactericidal activity against methicillin-resistant Staphylococcus epidermidis isolate 424/10 after 24 hrs; type: functional; settings: isolate 424/10, 24 h, read-out: MBC99.9
# [29] = test system: Staphylococcus epidermidis; test: Antimicrobial activity against methicillin-resistant Staphylococcus epidermidis isolate 457/11 after 18 hrs by twofold serial broth dilution method; type: functional; settings: isolate 457/11, 18 h
# [30] = test system: Staphylococcus epidermidis; test: Bactericidal activity against methicillin-resistant Staphylococcus epidermidis isolate 460/11 after 24 hrs; type: functional; settings: isolate 460/11, 24 h, read-out: MBC99.9
# [31] = test system: Staphylococcus epidermidis; test: Bactericidal activity against methicillin-resistant Staphylococcus epidermidis isolate 461/11 after 24 hrs; type: functional; settings: isolate 461/11, 24 h, read-out: MBC99.9
# Escherichia coli [32] = test: Antimicrobial activity against Escherichia coli NCTC 8196 after 18 hrs by twofold serial broth dilution method; type: functional; settings: NCTC 8196, 18 h
# [33] = test system: Staphylococcus epidermidis; test: Bactericidal activity against methicillin-resistant Staphylococcus epidermidis isolate 404/10 after 24 hrs; type: functional; settings: isolate 404/10, 24 h, read-out: MBC99.9
# [34] = test system: Staphylococcus epidermidis; test: Antimicrobial activity against methicillin-resistant Staphylococcus epidermidis isolate 454/11 after 18 hrs by twofold serial broth dilution method; type: functional; settings: isolate 454/11, 18 h
# Staphylococcus aureus [35] = test: Bactericidal activity against Staphylococcus aureus […] after 24 hrs; type: functional; settings: read-out: MBC99.9
# [36] = test system: Staphylococcus epidermidis; test: Antimicrobial activity against methicillin-resistant Staphylococcus epidermidis isolate 409/10 after 18 hrs by twofold serial broth dilution method; type: functional; settings: isolate 409/10, 18 h
# [37] = test system: Staphylococcus epidermidis; test: Bactericidal activity against methicillin-resistant Staphylococcus epidermidis isolate 459/11 after 24 hrs; type: functional; settings: isolate 459/11, 24 h, read-out: MBC99.9
# [38] = test system: Staphylococcus epidermidis; test: Bactericidal activity against methicillin-resistant Staphylococcus epidermidis isolate 407/10 after 24 hrs; type: functional; settings: isolate 407/10, 24 h, read-out: MBC99.9
# Pseudomonas aeruginosa [39] = test: Antimicrobial activity against Pseudomonas aeruginosa NCTC 6749 after 18 hrs by twofold serial broth dilution method; type: functional; settings: NCTC 6749, 18 h
# [40] = test system: Staphylococcus epidermidis; test: Bactericidal activity against methicillin-resistant Staphylococcus epidermidis isolate 409/10 after 24 hrs; type: functional; settings: isolate 409/10, 24 h, read-out: MBC99.9
# Staphylococcus aureus [41] = test: Bactericidal activity against Staphylococcus aureus NCTC 4163 after 24 hrs; type: functional; settings: NCTC 4163, 24 h, read-out: MBC99.9
smiles,measurement,setting,value
CC[C@@H](C(=O)[C@@H](C)[C@@H](O)[C@H](C)[C@@H]1O[C@@H]([C@@H](CC)C(=O)N(CCO)CCO)CC[C@@H]1C)[C@H]1O[C@]2(C=C[C@@H](O)[C@]3(CC[C@@](C)([C@H]4CC[C@](O)(CC)[C@H](C)O4)O3)O2)[C@H](C)C[C@@H]1C,MIC,Staphylococcus aureus [1],4 µg/mL
same,MBC,[2],256 µg/mL
same,MBC,[3],128 µg/mL
same,MBC,[4],128 µg/mL
same,MIC,Bacillus anthracis,2 µg/mL
same,MIC,[5],4 µg/mL
same,MIC,[6],4 µg/mL
same,MBC,Escherichia coli [7],> 256 µg/mL
same,MIC,Pseudomonas aeruginosa [8],> 256 µg/mL
same,MIC,Staphylococcus aureus [9],4 µg/mL
same,MIC,[10],4 µg/mL
same,MIC,[11],4 µg/mL
same,MBC,[12],256 µg/mL
same,MBC,Pseudomonas aeruginosa [13],> 256 µg/mL
same,MIC,[14],4 µg/mL
same,MBC,[15],256 µg/mL
same,MBC,[16],128 µg/mL
same,MIC,Staphylococcus aureus [17],4 µg/mL
same,MBC,[18],128 µg/mL
same,MBC,[19],128 µg/mL
same,MIC,[20],4 µg/mL
same,MBC,Escherichia coli [21],> 256 µg/mL
same,MBC,[22],128 µg/mL
same,diameter of the inhibition zone (DIZ),Bacillus subtilis,28 mm
same,MIC,[23],4 µg/mL
same,MBC,Pseudomonas aeruginosa [24],> 256 µg/mL
same,MBC,Staphylococcus aureus [25],256 µg/mL
same,MIC,[26],4 µg/mL
same,MIC,[27],4 µg/mL
same,MBC,[28],128 µg/mL
same,MIC,[29],4 µg/mL
same,MBC,[30],256 µg/mL
same,MBC,[31],128 µg/mL
same,MIC,Escherichia coli [32],> 256 µg/mL
same,MBC,[33],256 µg/mL
same,MIC,[34],2 µg/mL
same,MBC,Staphylococcus aureus [35],128 µg/mL
same,MIC,[36],8 µg/mL
same,MBC,[37],256 µg/mL
same,MBC,[38],128 µg/mL
same,MIC,Pseudomonas aeruginosa [39],> 256 µg/mL
same,MBC,[40],256 µg/mL
same,MBC,Staphylococcus aureus [41],256 µg/mL
